Data published in patent US9586880B2, “Small molecule inhibitors of necroptosis” (President and Fellows of Harvard College, priority 2008, dated 2017).

Experiments:
[1] = tested on: FADD-deficient variant of human Jurkat T cells; assay: TNF-α induced necroptosis inhibition, ATP-based viability assessment; format: cell-based; conditions: 10 ng/mL human TNF-α, 24 hours, CellTiter-Glo viability; for EC50: Jurkat
Protocol: (§1) Evaluation of necroptosis inhibitory activity was performed using a FADD-deficient variant of human Jurkat T cells or with L929 cells treated with TNF-α as previously described (Degterev et al., Nat. Chem. Biol. 1:112 (2005) and Jagtap et al., J. Med. Chem. 50: 1886 (2007)). Utilizing these conditions the cells efficiently underwent necroptosis. For EC50 value determinations, cells were treated with 10 ng/mL of human TNF-α in the presence of increasing concentration of test compounds for 24 hours followed by ATP-based viability assessment.
(§2) ATP-based viability assessment: Briefly, necroptosis activity was performed using a FADD-deficient variant of human Jurkat T cells or L929 cells treated with TNF-α. For EC50 value determinations, cells (500,000 cells/mL, 100 μL per well in a 96-well plate) were treated with 10 ng/mL of human TNF-α in the presence of increasing concentration of test compounds for 24 hours at 37° C. in a humidified incubator with 5% CO2 followed by ATP-based viability assessment. Stock solutions (30 mM) in DMSO were initially prepared and then diluted with DMSO to give testing solutions, which were added to each test well. The final DMSO concentration was 0.5%. Eleven compound test concentrations (0.030-100 μM) were used. Each concentration was done in duplicate.
(§3) Cell viability assessments were performed using a commercial luminescent ATP-based assay kit (CellTiter-Glo, Promega, Madison, Wis.) according to the manufacturer's instructions. Briefly, 40 μL of the cell lysis/ATP detection reagent was added to each well. Plates were incubated on a rocking platform for 10 minutes at room temperature and luminescence was measured using a Wallac Victor 3 plate-reader (Perkin Elmer, Wellesley, Mass.). Cell viability was expressed as a ratio of the signal in the well treated with TNF-α and compound to the signal in the well treated with compound alone. This was done to account for nonspecific toxicity, which in most cases was <10%. EC50 values were calculated using nonlinear regression analysis of sigmoid dose-response (variable slope) curves from plots of log [I] verses viability values.

[2] = tested on: L929 cells; assay: as above; format: cell-based; conditions: 10 ng/mL human TNF-α, 24 hours, CellTiter-Glo viability; for EC50: Mus musculus, L929
Protocol: as §1, §2, §3

| SMILES | EC50 [1] | EC50 Fadd −/− Jurkat [1] | further results |
| --- | --- | --- | --- |
| COc1cc(C2CC(=O)NC(SCC(=O)Nc3nccs3)=C2C#N)cc(OC)c1OC (stereo not drawn) [(1)] | 0.477 µM |  | EC50 [2]: 0.197 µM |
| N#CC1=C(SCC(=O)Nc2nccs2)NC(=O)CC1c1ccccc1F (stereo not drawn) [(2)] | 0.769 µM |  |  |
| N#CC1=C(SCC(=O)Nc2nccs2)NC(=O)CC1c1ccc(Cl)cc1 (stereo not drawn) [(3)] | 0.823 µM |  |  |
| COc1ccc(C2CC(=O)NC(SCC(=O)Nc3nccs3)=C2C#N)cc1OC (stereo not drawn) [(4)] | 0.354 µM |  |  |
| COC(=O)C1C(=O)NC(SCC(=O)Nc2nccs2)=C(C#N)C1c1ccc(Cl)cc1 (stereo not drawn) [(5)] | 25 µM |  |  |
| N#CC1=C(SCC(=O)Nc2nccs2)NC(=O)CC1c1ccccc1 (stereo not drawn) [(6)] |  | Partial activity |  |
| COc1ccccc1C1CC(=O)NC(SCC(=O)Nc2nccs2)=C1C#N (stereo not drawn) [(7)] | 2.38 µM |  |  |
| N#CC1=C(SCC(N)=O)NC(=O)CC1c1ccccc1 (stereo not drawn) [(8)] |  | inactive |  |
| COc1ccc(NC(=O)CSC2=C(C#N)C(c3cc(OC)c(OC)c(OC)c3)CC(=O)N2)cc1 (stereo not drawn) [(9)] |  | inactive |  |
| COc1cc(C2CC(=O)NC(SCC(=O)Nc3ccccc3)=C2C#N)cc(OC)c1OC (stereo not drawn) [(10)] |  | inactive |  |
| COc1cc(C2CC(=O)NC(SCC(=O)Nc3ccc(F)cc3)=C2C#N)cc(OC)c1OC (stereo not drawn) [(11)] |  | inactive |  |
| COc1cc(C2CC(=O)NC(SCC(=O)Nc3c(C)cc(C)cc3C)=C2C#N)cc(OC)c1OC (stereo not drawn) [(12)] |  | inactive |  |
| O=C(Nc1ccccc1)N1N=CCC1c1ccccc1 (stereo not drawn) [(17)] |  | inconclusive |  |
| CCN1CCN(CC(=O)N2N=CCC2c2ccccc2)CC1 (stereo not drawn) [(18)] | 0.41 µM |  |  |
| Cc1ccc(C(=O)C2=NNCC2c2ccccc2)cc1 (stereo not drawn) [(19)] | 0.369 µM |  |  |
| O=C(CSc1ccc(Cl)cc1)N1N=CCC1c1ccccc1 (stereo not drawn) [(20)] | 3.21 µM |  |  |
| O=C(CSc1nc2ccccc2s1)N1N=CCC1c1ccccc1 (stereo not drawn) [(21)] | 1.56 µM |  |  |
| Clc1ccc(-c2cc[nH]n2)cc1 [(22)] |  | Inactive |  |
| CCOC(=O)C1NN=C(C(=O)c2ccccc2)C1c1ccccc1 (stereo not drawn) [(23)] |  | Inactive |  |
| CCOC(=O)C1=NNC(C(=O)c2ccccc2)C1c1ccc(Cl)cc1 (stereo not drawn) [(24)] |  | Inactive |  |
| Cn1ccnc1SCC(=O)N1N=CCC1c1ccccc1 (stereo not drawn) [(25)] |  | Inactive |  |
| Cc1ccc2nc(SCC(=O)N3N=CCC3c3ccccc3)nc(C)c2c1 (stereo not drawn) [(26)] |  | Inactive |  |
| C#CC1(O)c2ccccc2C=Cc2ccccc21 [(28)] | 2.98 µM |  |  |

| SMILES | EC50 [1] | EC50 Fadd −/− Jurkat [1] | further results |
| --- | --- | --- | --- |
| C#CC(O)(c1ccccc1)c1ccccc1 [(29)] | 31.8 µM |  |  |
| CCC1(O)c2ccccc2CCc2ccccc21 [(30)] | 5.83 µM |  |  |
| C=CC1(O)c2ccccc2CCc2ccccc21 [(31)] | 2.95 µM |  |  |
| C#CC1(O)c2ccccc2CCc2ccc(F)cc21 (stereo not drawn) [(32)] | 2 µM |  |  |
| C#CC1(O)c2ccccc2CCc2c(F)cccc21 (stereo not drawn) [(33)] | 4.79 µM |  |  |
| C#CC1(O)CCCCCC1 [(34)] |  | Inactive |  |
| C#CC1(O)c2ccccc2-c2ccccc21 [(35)] |  | Inactive |  |
| C#CC1(OC)c2ccccc2CCc2ccccc21 [(36)] |  | Inactive |  |
| C=C(Br)C1(Br)c2ccccc2CCc2ccccc21 [(37)] |  | Inactive |  |
| C=C(Cl)C1(Cl)c2ccccc2CCc2ccccc21 [(38)] |  | Inactive |  |
| OC1(C#CBr)c2ccccc2CCc2ccccc21 [(39)] |  | Inactive |  |
| CC#CC1(O)c2ccccc2CCc2ccccc21 [(40)] |  | Inactive |  |
| C#CC1(O)c2ccccc2CCc2c1ccc1ccccc21 (stereo not drawn) [(41)] |  | Inactive |  |
| C#CC1(O)c2cc(I)ccc2CCc2ccc(I)cc21 [(42)] |  | Inactive |  |
| C#CC1(O)c2cc([N+](=O)[O-])ccc2CCc2ccc([N+](=O)[O-])cc21 [(43)] |  | Inactive |  |
| C#CC1(O)c2ccccc2CCc2ccc(Br)cc21 (stereo not drawn) [(44)] |  | Inactive |  |
| C#CC1(O)c2ccccc2CCc2ccc(Cl)cc21 (stereo not drawn) [(45)] |  | Inactive |  |
| C#CC1(O)c2ccccc2CCc2ccc(C)cc21 (stereo not drawn) [(46)] |  | Inactive |  |
| CC(C)(O)C#CC1(O)c2ccccc2CCc2ccccc21 [(47)] |  | Inactive |  |
| Cc1sc2ncn(Cc3ccccc3)c(=O)c2c1C [(49)] | 3.8 µM |  |  |
| O=c1c2c3c(sc2ncn1Cc1cccc2cccnc12)CCC3 [(50)] | > 30 µM |  |  |
| COc1ccc(F)cc1Cn1cnc2sc3c(c2c1=O)CCC3 [(51)] | 10.9 µM |  |  |
| COc1ccc(Cn2cnc3sc4c(c3c2=O)CCC4)cc1F [(52)] | 3.05 µM |  |  |

| SMILES | EC50 [1] | EC50 Fadd −/− Jurkat [1] | further results |
| --- | --- | --- | --- |
| O=c1c2c3c(sc2ncn1Cc1cccc2ccccc12)CCC3 [(53)] | > 30 µM |  |  |
| N#Cc1ccc(Cn2cnc3sc4c(c3c2=O)CCC4)cc1 [(54)] | 0.861 µM |  |  |
| O=c1cc(Cn2cnc3sc4c(c3c2=O)CCC4)c2ccccc2[nH]1 [(55)] | > 30 µM |  |  |
| O=c1c2ccccc2ncn1Cc1ccc(Cl)cc1 [(56)] | > 30 µM |  |  |
| O=c1c2c3c(sc2ncn1Cc1c(Cl)cccc1Cl)CCC3 [(57)] | 0.936 µM |  |  |
| CCSCC(=O)Nc1ccc(F)cc1 [(64)] | 14.1 µM |  | EC50 L929 [2]: Inactive |
| Cc1ccc(Cn2ncc3ccccc32)cc1 [(65)] | 3.62 µM |  | EC50 L929 [2]: Inactive |
| Cc1ccc(CN(C)C(=O)C2CCCCC2)o1 [(66)] | 2.62 µM |  | EC50 [2]: 47.1 µM |
| CNC(Cc1ccccc1)=C1C(=O)CC(C)(C)CC1=O [(67)] | 2.25 µM |  | EC50 [2]: 10 µM |
| CNS(=O)(=O)c1cccc(C(=O)OCC(=O)N2CCCc3ccccc32)c1 [(68)] | 1.63 µM |  | EC50 L929 [2]: Inactive |
| O=C(NCc1cccs1)C1CCCCC1 [(69)] | 7.72 µM |  | EC50 L929 [2]: Inactive |
| Cc1s/c(=N\C(=O)C2=NNC(=O)CC2)[nH]c1-c1ccc(F)cc1 [(70)] | 0.908 µM |  | EC50 L929 [2]: Inactive |
| CC(C)(C)OC(=O)Nc1ccc(-c2cc[nH]n2)cc1 [Compound (13)] | 5.38 µM |  | EC50 [2]: 0.89 µM |
| O=C(N1N=CCC1c1ccccc1)C12CC3CC(CC(C3)C1)C2 (stereo not drawn) [Compound (14)] | 0.41 µM |  | EC50 [2]: 4.2 µM |
| O=C(C1=NNCC1c1ccccc1)c1ccccc1 (stereo not drawn) [Compound (15)] | 0.369 µM |  | EC50 [2]: 4.02 µM |
| O=C(CSc1nnnn1-c1ccccc1)N1N=CCC1c1ccccc1 (stereo not drawn) [Compound (16)] | 0.629 µM |  | EC50 [2]: 73 µM |
| C#CC1(O)c2ccccc2CCc2ccccc21 [Compound (27)] | 3.23 µM |  | EC50 [2]: 0.659 µM |
| O=c1c2c3c(sc2ncn1Cc1ccccc1)CCC3 [Compound (48)] | 0.216 µM |  | EC50 [2]: 8.66 µM |
| CCN(CC)S(=O)(=O)c1ccc(C(=O)/N=c2\[nH]ccs2)cc1 [Compound (58)] | 8.96 µM |  | EC50 [2]: 1.11 µM |
| O=C1NC(Cc2c[nH]c3ccccc23)C(=O)N1Cc1ccc(Cl)cc1 (stereo not drawn) [Compound (59)] | 0.343 µM |  | EC50 [2]: 7.46 µM |
| O=C(C1COc2ccccc2O1)N1CCc2ccccc21 (stereo not drawn) [Compound (60)] | 0.629 µM |  | EC50 [2]: 23 µM |
| O=C(COc1ccccc1)N1CCc2ccccc21 [Compound (61)] |  | Inactive |  |
| c1ccc(C2CC3CC4(CCCC4)N2O3)cc1 (stereo not drawn) [Compound (62)] | 0.668 µM |  | EC50 [2]: 10.1 µM |
